# Legend:
# urinary reflex = assay: Supression of urinary reflex (bladder balloon, intraduodenal administration); format: in vivo, male Wister rats; settings: for ED50: Rattus norvegicus, 50% effective dose, suppression of urinary reflex by more than 50%, up and down method, anesthetized male Wister rats, via duodenum, read-out: ID50 (the source's name); for Ratio of Effect: from ID50, Effect of Reference (Reference 1) defined as 1.00
# Protocol: According to the method of Kaseda et al. (Rinsho Seiri, 5, 540 (1975)), male Wister rats, weighing approximately 300 g and fasted for 15 to 20 hours prior to experiments, were anesthetized by intraperitoneal injection of 500 mg/Kg of urethane and 50 mg/Kg of α-chloralose, and fixed to a supine position. Then the lower abdomen was opened through a midline incision to expose the bladder, and a balloon (1.5 to 2.0 cm^3) was inserted into the urinary bladder via small incision in the base thereof. The change of inner pressure is recorded via pressure transducer. The urinary reflex was induced by elevating the inner pressure to 10 to 20 cm H2 O. Urine was excreted from the incision of the bladder, where balloon was inserted.
# The test compounds were given through polyethylene tube inserted into duodenum via an incision in the fundus.
# Mean value of contraction according to the urinary reflex appeared during ten minutes before the administration of the compounds, and at 15, 30, 45 and 60 minutes thereafter, have been investigated for the determination of the effect of the present compounds. The mean value suppressed by more than 50% compared to the initial value has been estimated as effect. ID50 (50% effective dose) was obtained by up and down method.
# in vitro = in vitro ADME, male Wister rats; settings: rat, pH 6; for Ratio of Effect (T 1/2): 50 uM; for half-life at 50 µM: small intestinal mucosa homogenate
# Protocol: (2) Stability in acidic medium (corresponding to artificial small intestinal juice)
# After sacrificing male Wister rats (weighing approximately 300 g), small intestine was taken out and small intestinal mucous membrane was scraped off, and 20 ml of 0.1M phosphate buffer (pH 6.00) were added per 0.5 g of small intestinal mucous membrane (wet weight) to give 2.5% of homogenate.
# Test compound was dissolved in the homogenate to give definite concentration (50 uM). With shaking of the obtained mixture at 37° C., sampling was carried out from time to time, and the content of each compound was quantitatively measured by analyzing peak height of each compound by a reversed-phase high performance liquid chromatography. The half-life time of each compound in acidic medium (corresponding to artificial small intestinal juice, pH 6.0) was measured from a graph indicating content change of each compound against time.
# The compounds of the present invention and flavoxate (Reference 1) should be absorbed, after p.o. administation, in the small intestine to show medical effect. Therefore, the stability of the compounds against the hydrolyzation according to the nonspecific esterase contained in small intestinal mucous membrane is very important.
SMILES,Ratio of Effect (T 1/2) (in vitro),half-life at 50 µM (in vitro) [days],ED50 (urinary reflex) [mg/kg],Ratio of Effect (urinary reflex)
CCN(CC)CCNC(=O)c1cccc2c(=O)c(C)c(-c3ccc(OC)cc3)oc12 [Compound 5],1177.4,29.9,93.3,2.92
CCN(CC)CCN(C)C(=O)c1cccc2c(=O)c(C)c(-c3ccccc3)oc12 [Compound 3],252.1,6.41,46.7,5.83
"Cc1c(-c2ccccc2)oc2c(C(=O)O)cccc2c1=O [Reference 3, reference compound]",–,–,308,0.89
"CCN(CC)CCOC(=O)c1cccc2c(=O)c(C)c(-c3ccccc3)oc12 [Reference 2, reference compound]",2.3,0.0579,325,0.84

# Second part, led by results:
Ratio of Effect (T 1/2) (in vitro),half-life at 50 µM (in vitro) [days],SMILES,ED50 (urinary reflex) [mg/kg],Ratio of Effect (urinary reflex)
1276.9,32.5,Cc1c(-c2ccccc2)oc2c(C(=O)NCC(C)N3CCCCC3)cccc2c1=O (stereo not drawn) [Compound 4],46.7,5.83
1.0,0.0254,"Cc1c(-c2ccccc2)oc2c(C(=O)OCCN3CCCCC3)cccc2c1=O [Reference 1, flavoxate, reference compound]",272,1.00
475.4,12.1,Cc1c(-c2ccccc2)oc2c(C(=O)NCCN3CCCCC3)cccc2c1=O [Compound 2],26.8,10.16
1066.1,27.1,CCN(CC)CCNC(=O)c1cccc2c(=O)c(C)c(-c3ccccc3)oc12 [Compound 1],36.7,7.42
